PMC5670239, “Structural basis for mutually exclusive co-transcriptional nuclear cap-binding complexes with either NELF-E or ARS2” (Nature Communications, 2017)
Numbering of substitutions follows the chain as printed.

Legend:
[1] = biological target: T1, CBCmut (Homo sapiens, UniProt P52298, Y50A); test: ITC, m^7GTP binding to CBCmut; conditions: 25 °C, pH 7.8, m^7GTP titrated to CBCmut, mean ± SD of 2 experiments
T1 sequence (P52298 1-156 Y50A): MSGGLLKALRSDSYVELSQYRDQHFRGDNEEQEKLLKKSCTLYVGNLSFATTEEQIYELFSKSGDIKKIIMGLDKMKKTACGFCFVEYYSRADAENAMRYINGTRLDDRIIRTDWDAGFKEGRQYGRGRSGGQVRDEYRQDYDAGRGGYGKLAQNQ
T1 sequence (Q09161 20-790 Y461A/R610E/H651A partner): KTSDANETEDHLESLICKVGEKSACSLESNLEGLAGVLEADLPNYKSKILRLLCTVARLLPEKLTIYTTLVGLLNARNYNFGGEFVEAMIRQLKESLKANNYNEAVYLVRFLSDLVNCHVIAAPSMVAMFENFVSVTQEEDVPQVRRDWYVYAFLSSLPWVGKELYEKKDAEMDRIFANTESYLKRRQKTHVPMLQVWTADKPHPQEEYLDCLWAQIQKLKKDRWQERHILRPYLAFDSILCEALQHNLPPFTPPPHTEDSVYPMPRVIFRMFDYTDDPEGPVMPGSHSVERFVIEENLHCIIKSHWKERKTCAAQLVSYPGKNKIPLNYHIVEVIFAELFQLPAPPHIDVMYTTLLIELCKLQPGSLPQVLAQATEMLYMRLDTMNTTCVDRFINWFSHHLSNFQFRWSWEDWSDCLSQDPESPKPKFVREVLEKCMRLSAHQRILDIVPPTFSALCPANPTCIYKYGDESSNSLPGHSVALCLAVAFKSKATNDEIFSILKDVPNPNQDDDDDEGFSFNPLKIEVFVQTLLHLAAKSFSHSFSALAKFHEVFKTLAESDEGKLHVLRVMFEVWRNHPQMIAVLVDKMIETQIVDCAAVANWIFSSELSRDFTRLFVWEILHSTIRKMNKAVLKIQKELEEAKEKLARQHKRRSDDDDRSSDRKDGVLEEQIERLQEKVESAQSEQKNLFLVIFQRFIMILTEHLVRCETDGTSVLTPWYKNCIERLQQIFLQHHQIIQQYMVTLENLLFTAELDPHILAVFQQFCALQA
Experimental: (§7) For CBC, a triple mutant in CBP80 (Y461A/R610E/H651A) was combined with various mutations in CBP20 (Y50A, Y50A/Y89A, or Y50A/Y89A/D107R).
(§8) ITC experiments were performed on a MicroCal ITC200 system (Malvern). Proteins were dialyzed overnight in buffer 20 mM HEPES, 120 mM NaCl, 2 mM tris(2-carboxyethyl)phosphine, pH 7.8. Injections of 1.5 µl protein A were added at an interval of 120–180 s into 205 µl of protein B in the cell, with a stirring speed of 800 rpm at 25 °C. The experimental data were analysed with MicroCal ITC Origin and were fitted to a single-site binding equation.

[2] = biological target: T2, CBC (6 mutations) (Homo sapiens, UniProt P52298, D107R/Y50A/Y89A); test: ITC, m^7GTP binding to CBC with triple mutants of both CBP20 and CBP80; conditions: 25 °C, pH 7.8, CBP80 Y461A/R610E/H651A + CBP20 Y50A/Y89A/D107R, mean ± SD of 2 experiments
T2 sequence (P52298 1-156 Y50A/Y89A/D107R): T1 sequence (P52298 1-156 Y50A) with Y89A, D107R
T2 sequence (Q09161 20-790 Y461A/R610E/H651A partner): T1 sequence (Q09161 20-790 Y461A/R610E/H651A partner)
Experimental: as §7, §8

[3] = biological target: CBC-NELF-E 244–380 (Homo sapiens, UniProt P52298); test: ITC, m^7GTP titrated to CBC saturated with NELF-E 244–380; format: binding
Source text: (§1) Supplementary Figure 7. Influence of ARS2 and NELF-E on m7GTP binding to CBC.
(§2) Representative isothermal titration calorimetry data, presented as in the caption to Figure 1C,
(§3) allowing determination of the affinity of CBC to m7GTP in the absence (left) or in the
(§4) presence of bound ARS2827-871 (middle) or NELF-E244-380 (right). CBC or CBC saturated
(§5) with 2.2 molar excess of ARS2827-871 or NELF-E244-380 in the sample cell was titrated by
(§6) m7GTP. KD values represent the average from at least two independent experiments (see […]

[4] = biological target: T3, CBC-ARS2 827–871 (Homo sapiens, UniProt P52298); test: ITC, m^7GTP titrated to CBC saturated with ARS2 827–871; format: binding
T3 sequence (P52298 1-156): T1 sequence (P52298 1-156 Y50A) with A50Y
T3 sequence (Q09161 20-790 partner): T1 sequence (Q09161 20-790 Y461A/R610E/H651A partner) with A442Y, E591R, A632H
T3 sequence (Q9BXP5 832-876 partner): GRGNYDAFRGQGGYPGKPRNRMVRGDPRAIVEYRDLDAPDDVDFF
Source text: as §1, §2, §3, §4, §5, §6

[5] = compared to m^7GTP binding to CBC alone

Chain of CBC-NELF-E 244–380 (P52298 whole entry): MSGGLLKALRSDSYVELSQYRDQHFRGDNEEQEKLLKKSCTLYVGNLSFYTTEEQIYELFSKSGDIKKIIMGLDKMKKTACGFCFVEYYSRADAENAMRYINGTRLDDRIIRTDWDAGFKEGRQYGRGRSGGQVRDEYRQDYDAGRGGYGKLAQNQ
Chain of CBC-NELF-E 244–380 (Q09161 20-790 partner): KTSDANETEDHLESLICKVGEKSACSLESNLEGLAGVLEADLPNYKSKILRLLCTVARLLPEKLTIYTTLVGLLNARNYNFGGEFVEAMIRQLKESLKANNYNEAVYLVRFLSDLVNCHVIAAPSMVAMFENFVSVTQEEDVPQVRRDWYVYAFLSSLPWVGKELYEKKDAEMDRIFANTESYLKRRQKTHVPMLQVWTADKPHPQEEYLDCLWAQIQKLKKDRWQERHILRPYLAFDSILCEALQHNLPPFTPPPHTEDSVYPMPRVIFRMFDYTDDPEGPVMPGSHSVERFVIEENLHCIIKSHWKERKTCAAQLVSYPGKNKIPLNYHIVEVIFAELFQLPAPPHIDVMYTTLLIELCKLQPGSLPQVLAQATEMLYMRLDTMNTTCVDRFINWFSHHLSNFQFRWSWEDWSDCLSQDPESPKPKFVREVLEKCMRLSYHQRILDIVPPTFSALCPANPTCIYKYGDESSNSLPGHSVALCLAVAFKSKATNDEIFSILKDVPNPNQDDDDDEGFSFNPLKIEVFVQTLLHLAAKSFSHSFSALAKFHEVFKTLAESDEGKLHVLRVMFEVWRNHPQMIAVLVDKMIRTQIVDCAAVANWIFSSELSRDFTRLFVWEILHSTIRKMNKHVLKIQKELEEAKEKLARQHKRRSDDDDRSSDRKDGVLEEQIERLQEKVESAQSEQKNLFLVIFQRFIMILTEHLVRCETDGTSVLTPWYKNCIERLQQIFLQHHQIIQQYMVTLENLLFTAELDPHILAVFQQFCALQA
Chain of CBC-NELF-E 244–380 (P18615 244-380 partner): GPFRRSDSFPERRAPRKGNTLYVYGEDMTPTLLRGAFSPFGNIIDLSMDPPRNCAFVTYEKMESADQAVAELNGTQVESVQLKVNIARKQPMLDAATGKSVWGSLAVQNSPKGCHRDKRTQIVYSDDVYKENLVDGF

## C[n+]1cn([C@@H]2O[C@H](COP(=O)(O)OP(=O)([O-])OP(=O)(O)O)[C@@H](O)[C@H]2O)c2nc(N)[nH]c(=O)c21 [m^7GTP]
[1]
  K D: as well as wild-type CBC
[1]; SD
  Kd: 0.095 ± 0.024 µM
[2]
  Kd: 70 ± 4 µM
[3]; 25 °C, pH 7.8, CBC saturated with 2.2 molar excess of NELF-E 244–380, titrated by m^7GTP, mean ± SD of 3 experiments, SD
  Kd: 0.044 ± 0.002 µM
[3]; [5]
  Increase of the affinity of CBC for cap (m^7GTP) by saturating NELF-E: ~ 3 factor
[4]; 25 °C, pH 7.8, CBC saturated with 2.2 molar excess of ARS2 827–871, titrated by m^7GTP, mean ± SD of 2 experiments, SD
  Kd: 0.018 ± 0.001 µM
[4]; [5]
  Increase of the affinity of CBC for cap (m^7GTP) by saturating ARS2: ~ 7 factor
